These results are taken from patent US9364514B2, “Anti-tumor adjuvant therapy” (Universite Pierre et Marie Curie (Paris 6), priority 2011, dated 2016).

The subject of assay [1] is mouse breast tumors from transgenic polyoma Middle-T mice (PyMT model). The assay can be described thus: Therapeutic assay in nude mice bearing xenografted mouse breast tumors (PyMT model). The settings on record: 5 mg/kg i.p. daily. The class given is in vivo. The text has this: (§1) The primary human xenografts were obtained as previously described (Marangoni et al., 2007). Mouse breast cancer tumors were obtained using the transgenic Polyoma Middle-T Mouse PyMT model. Spontaneously growing mammary tumors occurring in transgenic mice were xenografted into nude immunodeficient mice to allow pharmacological assessments, and maintained from nude mouse to nude mouse serially passages.
(§2) For therapeutic experimental assays, 5- to 8-week old Swiss nu/nu female mice received a subcutaneous graft of tumor fragments with a volume of approximately 15 mm3. Tumors developed at the graft site 2 to 6 weeks later. Mice bearing growing tumors with a volume of 40 to 200 mm^3 were individually identified and randomly assigned to the control or treatment groups (10 animals in each group) and treatments were started on day 1. Mice were weighed twice a week. Tumour-bearing mice were sacrificed when the tumor volume reached 2500 mm^3, defined as the ethical limit. Tumor volumes and antitumor activity were evaluated as previously reported (Nemati et al. 2009. Anti Cancer Drugs 20, pages 932-940).
The anti-tumoral effect of the mouse peptide DPT-C9 was analyzed in nude mice bearing xenograft mouse breast tumors obtained from the transgenic polyoma Middle-T mice. […]

Assay [2] concerns breast cancer model BC52. The assay can be described thus: Therapeutic assay in mice bearing primary human breast cancer xenograft BC52. In kind it is in vivo, Swiss nu/nu female mice.
Description: as §1, §2
(§3) DPT-C9h peptide diluted in water/glucose (1 to 25 mg/kg) was given by intraperitoneally route 5 to 7 days per week, according to the models and the therapeutic schedules. Doxorubicin (Teva Pharmaceuticals) and cyclophosphamide (Baxter) were diluted in 0.9% NaCl and administered intraperitoneally at a dose of 2 mg/kg and 100 mg/kg at day 1, respectively.
(§4) The anti-tumoral effect of DPT-C9h was tested in mice bearing breast cancer model BC52 and BC146. DPT-C9h was intraperitoneally administered at 5 mg/kg once daily for 5 weeks.

In assay [3] the test system is MDA MB231 breast cancer cell line. The assay can be described thus: Detection of apoptosis by Annexin-V-FITC staining. In kind it is cell-based. The protocol: (§5) MDA MB231 breast cancer cell line was cultured in DMEM medium supplemented with 10% of FCS.
Apoptotic cells were detected using Annexin-V (-FITC from BD biosciences) as described by the manufacturer. Briefly, the cells were washed in 1× binding buffer, centrifuged and then resuspended in 200 μl of 1× binding buffer containing Annexin V-FITC (0.1 μg/ml) and PI (0.5 μg/ml). After incubation at room temperature in the dark for 10 min, cells were analyzed by flow cytometry. Data acquired by FACSCalibur (BD biosciences) were analyzed with Cellquest Pro software.

Assay [4] concerns BC146 human breast cancer model. The assay can be described thus: Therapeutic assay in mice bearing primary human breast cancer xenograft BC146. The class given is in vivo, Swiss nu/nu female mice.
Description: as §1, §2, §3, §4
The inventors have further tested combined administration of DPT-C9h with doxorubicin and cyclophosphamid chemotherapy. The administration was either simultaneous or sequential: DPT-C9h was then administered at day 20, a stage corresponding to a chemotherapy-induced complete remission.
In general terms: A xenograft is tissue or cells of one species grown in another, often human tumour cells in immunodeficient mice.

The test system of assay [5] is MDA MB231 breast cancer cell line. The assay can be described thus: Cytotoxicity assay (MTT). The following applies: 61 h. The class given is cell-based. How it is done:
as §5
The cytotoxicity of chemotherapy and the peptide was assessed by MTT. […] Cells were rinsed with culture medium and incubated with 10 μl MTT (5 mg/ml) in a final volume of 100 μl for 4 h at 37° C. The formation of blue formazan crystals was visualized by microscopy. After this period of incubation, 100 μl of 10% SDS in 10 mM HCl was added to each well and the plate incubated overnight. The absorbance was measured at 570 and 620 nm and the percentage of viable cells to untreated controls was estimated.

Where [6] appears, read: BC52 model, Treatment (Chemo.) = Ovariectomy, DPT-C9h 5 mg/kg i.p. once daily for 5 weeks.
Where [7] appears, read: BC146 model, Chemo. = Doxorubicin + cyclophosphamid, DPT-C9h 5 mg/kg i.p.

With “VKKKKIKREIKI-YIETLDDILEQWARSEDL (VKKKKIKREIKIYIETLDDILEQWARSEDL; cell penetrating peptide) [DPT-C9]”, the tumor growth inhibition result in assay [1] is “significant tumor growth inhibition”.
Consider “VKKKKIKREIKI-YVETLDDIFEQWAHSEDL (VKKKKIKREIKIYVETLDDIFEQWAHSEDL; cell penetrating peptide) [DPT-C9h]”, for which the tumor growth inhibition entry in assay [2] (BC52, 5 mg/kg i.p. once daily for 5 weeks, end of treatment) is reported as “significant tumor growth inhibition”; in assay [4] (BC146, 5 mg/kg i.p. once daily for 5 weeks, end of treatment), “significant tumor growth inhibition”. Also, the “OS: Overall survival” value is given as 33% in assay [2] (setting [6]) and 27% in assay [4] (setting [7]). Also, the “RTV: Relative tumor volume” value in assay [2] (setting [6]) was 0.70; in assay [4] (setting [7]) it was 20.2. Moreover, the “apoptosis (annexin staining), combination effect” value was “synergistic apoptotic effect” in assay [3] (5FU 10 μM 24 h, then 25 or 50 μM DPT-C9h for 24 further h); “synergistic apoptotic effect” in assay [3] (cisplatin 10 μM 24 h, then increasing doses of DPT-C9h for 24 further h); “synergistic effect on apoptosis” in assay [3] (different doses of DPT-C9h + doxorubicin 0.25 μM, 24 h); “synergistic apoptotic effect” in assay [3] (docetaxel 0.5 μM + 10 and 25 μM DPT-C9h, 24 h). Also, the tumor relapse result in assay [4] (DPT-C9h combined with doxorubicin and cyclophosphamid, simultaneous or sequential (from day 20), versus chemotherapy alone) is on record as “delayed tumor relapse better than chemotherapy alone”. For the same substance, in assay [4] (Treatment (Chemo.) = Doxorubicin 2 mg/kg + cyclophosphamid 100 mg/kg i.p. day 1, DPT-C9h simultaneous or from day 20), the “CR: Complete remission” value is 0%. Besides, the “cell survival (MTT)” value is “low cell survival” in assay [5] (different doses of 5FU + DPT-C9h 10 μM); “low level of cell survival” in assay [5] (different doses of cisplatin + DPT-C9h 10 μM); “low survival” in assay [5] (different doses of docetaxel + DPT-C9h 10 μM, versus docetaxel only).
